Tests used:
U2OS = test: Incucyte cell viability with U2OS; assay type: toxicity, cell-based; settings: human, 10 µM, compound concentration 10 uM
HEK-293T = test: Incucyte cell viability with HEK293T; assay type: toxicity, cell-based; settings: human, 10 µM, compound concentration 10 uM
[1] = 0 h, replicate number 1, timepoint 0 hours
[2] = 6 h, replicate number 1, timepoint 6 hours
[3] = 12 h, replicate number 1, timepoint 12 hours
[4] = 18 h, replicate number 1, timepoint 18 hours
[5] = 18 h, replicate number 2, timepoint 18 hours
[6] = 24 h, replicate number 1, timepoint 24 hours
[7] = 24 h, replicate number 2, timepoint 24 hours
[8] = 0 h, replicate number 2, timepoint 0 hours
[9] = 6 h, replicate number 2, timepoint 6 hours
[10] = 12 h, replicate number 2, timepoint 12 hours

Measured: Growth Rate
Further: filed as whole numbers so only -1 and 0 and 1 occur.

CC(C)(O)CNc1ncc(-c2ccnc(Nc3ccnc(Cl)c3)n2)c(CC2CC2)n1
0: U2OS; [1] | U2OS; [3] | U2OS; [4] | U2OS; [6] | HEK-293T; [2] | HEK-293T; [3] | HEK-293T; [4] | HEK-293T; [6]
1: U2OS; [2] | U2OS; [5] | U2OS; [7] | HEK-293T; [8]

O=C1NCN(c2ccccc2)C12CCN(CCCOc1ccc(F)cc1)CC2 [SPIRAMIDE]
0: U2OS; [1] | U2OS; [3] | U2OS; [4] | U2OS; [6] | HEK-293T; [1] | HEK-293T; [2] | HEK-293T; [3] | HEK-293T; [4] | HEK-293T; [6]
1: U2OS; [9]

Cc1cc(C)cc(-c2cnc3cc(Cl)c(-c4cccc(O)c4)cc3c2OCCCN)c1
0: U2OS; [8] | U2OS; [2] | U2OS; [3] | U2OS; [4] | U2OS; [6] | HEK-293T; [2] | HEK-293T; [3] | HEK-293T; [4] | HEK-293T; [6]
1: HEK-293T; [8]

c1cn2cc(-c3ccc4cn[nH]c4c3)nc(Nc3ccc(N4CCOCC4)cc3)c2n1 [ENTOSPLETINIB]
0: U2OS; [5] | U2OS; [6]
1: U2OS; [8] | U2OS; [9] | U2OS; [3] | U2OS; [4] | HEK-293T; [6]

CN1C(=O)c2sccc2N(C)c2nc(Nc3ccc(S(N)(=O)=O)cc3)ncc21
0: U2OS; [8] | U2OS; [2] | U2OS; [3] | U2OS; [4] | U2OS; [6] | HEK-293T; [2] | HEK-293T; [3] | HEK-293T; [4] | HEK-293T; [6]

C=CC(=O)Nc1cccc(C(=O)Nc2ccc(Nc3cc(-c4[nH]c(SC)nc4C)ccn3)cc2)c1
1: U2OS; [8] | HEK-293T; [8] | HEK-293T; [5]
0: U2OS; [1] | U2OS; [2] | U2OS; [3] | U2OS; [4] | U2OS; [6] | HEK-293T; [1] | HEK-293T; [2] | HEK-293T; [3] | HEK-293T; [4] | HEK-293T; [6]

CC(C)NCC(O)COc1ccc(CCOCC2CC2)cc1.Cl (centres undefined) [BETAXOLOL HYDROCHLORIDE]
1: U2OS; [4] | U2OS; [6] | HEK-293T; [9]
0: U2OS; [1] | HEK-293T; [8] | HEK-293T; [2] | HEK-293T; [3] | HEK-293T; [4] | HEK-293T; [6]

CN1CCN(c2ccc(OC(F)(F)F)c(Nc3ncc4c(n3)-c3c(c(C(N)=O)nn3CCO)CC4)c2)CC1 [ONVANSERTIB]
0: U2OS; [1] | U2OS; [2] | U2OS; [3] | U2OS; [4] | U2OS; [6] | HEK-293T; [8] | HEK-293T; [2] | HEK-293T; [3] | HEK-293T; [4] | HEK-293T; [6]
1: HEK-293T; [1]

CN(C)CC#Cc1ccc(OCCCc2sc(N3CCc4cccc(C(=O)Nc5nc6ccccc6s5)c4C3)nc2C(=O)O)c(F)c1 [A-1155463]
0: U2OS; [1] | U2OS; [2] | U2OS; [3] | U2OS; [4] | U2OS; [6] | HEK-293T; [1]
1: U2OS; [10] | HEK-293T; [8] | HEK-293T; [7]

CCN(CC)CCCCNc1ncc2cc(-c3cc(OC)cc(OC)c3)c(NC(=O)NC(C)(C)C)nc2n1 [PD-173074]
0: U2OS; [8] | U2OS; [2] | U2OS; [3] | U2OS; [4] | U2OS; [6] | HEK-293T; [2] | HEK-293T; [3] | HEK-293T; [4] | HEK-293T; [6]
1: U2OS; [1] | U2OS; [9] | U2OS; [10] | U2OS; [5] | HEK-293T; [1]

CNCc1ccccc1-c1csc([C@H](C)Nc2nc(C)nc3cc(OC)c(OC)cc23)c1 [BAY-294]
0: U2OS; [1] | U2OS; [2] | U2OS; [3] | U2OS; [4] | U2OS; [6] | HEK-293T; [2] | HEK-293T; [3] | HEK-293T; [4] | HEK-293T; [6]

CN(C)C(=O)/C(C#N)=C/c1ccc(-c2nc3cnc4[nH]ccc4c3n2C2CCCCC2)o1
1: U2OS; [9] | U2OS; [10] | U2OS; [5] | U2OS; [7] | HEK-293T; [7]
0: U2OS; [1] | U2OS; [2] | U2OS; [3] | U2OS; [4] | U2OS; [6] | HEK-293T; [1]

OC1(c2ccc(Cl)cc2)CCN(Cc2c[nH]c3ccccc23)CC1
0: U2OS; [9] | U2OS; [3] | U2OS; [4] | U2OS; [6] | HEK-293T; [2] | HEK-293T; [3] | HEK-293T; [4] | HEK-293T; [6]
1: HEK-293T; [1]

CN1CCCC(n2nc(Cc3ccc(Cl)cc3)c3ccccc3c2=O)CC1.Cl (centres undefined) [AZELASTINE HYDROCHLORIDE]
1: U2OS; [10] | U2OS; [4] | U2OS; [6] | HEK-293T; [8]
0: U2OS; [1] | U2OS; [9] | HEK-293T; [2] | HEK-293T; [3] | HEK-293T; [4] | HEK-293T; [6]

Cl.N#Cc1ccc2[nH]cc(CCCCN3CCN(c4ccc5oc(C(N)=O)cc5c4)CC3)c2c1 [VILAZODONE HYDROCHLORIDE]
0: U2OS; [1] | U2OS; [10] | U2OS; [4] | U2OS; [6] | HEK-293T; [1] | HEK-293T; [2] | HEK-293T; [3] | HEK-293T; [4] | HEK-293T; [6]
1: U2OS; [9] | U2OS; [3]

From ChEMBL document CHEMBL4689842, “EUbOPEN Chemogenomics Library wave 1” (2021)
